In patent US4231928A, “Antibacterial agents” (priority 1979, dated 1980):
Where two headings read alike, the source gives them in different places.

Tests used:
Pseudomonas aeruginosa = experiment: Serial twofold agar dilution (Mueller-Hinton agar), P. aeruginosa; assay type: cell-based; conditions: Pseudomonas aeruginosa, Mueller-Hinton agar, read-out: MIC
In short: (§1)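 Compound was diluted twofold serially into Mueller-Hinton agar plates. Organisms were then applied with Steers' apparatus, and the MIC was read for each strain in a 31-organism primary panel and a 61-strain P. aeruginosa set.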

Pseudomonas sp. = experiment: Serial twofold agar dilution (Mueller-Hinton agar), Pseudomonas sp.; assay type: cell-based
In short: as §1

[1] = Mouse blood levels after subcutaneous administration; conditions: in vivo, sc, 20 mg/kg
Procedure: Mouse blood levels of BB-[…] and BB-[…] were determined by subcutaneous administration of 20 mg/kg of the penicillin to groups of three mice. Blood samples collected from orbital sinuses were assayed by the paper disk agar-diffusion method on Sarcina lutea PC1 1001 plates.

CC1(C)S[C@@H]2[C@H](NC(=O)[C@H](NC(=O)c3cnc4ccc(O)nn4c3=O)c3ccccc3)C(=O)N2[C@H]1C(=O)O [BB-P598, sodium 6-[D-(-)-α-phenyl-α-(7-hydroxy-4-oxo-4H-pyrimido[1,2-b]pyridazin-3-ylcarboxamido)acetamido]penicillanate]
MIC (Pseudomonas aeruginosa; Pa-17 H6, D114, Table 9): 1.6 µg/mL
MIC (Pseudomonas aeruginosa; Pa-17 H6 D114, Table 2): 3.1 µg/mL
MIC (Pseudomonas aeruginosa; Pa-18 H8, D121, Table 9): 1.6 µg/mL
MIC (Pseudomonas aeruginosa; Pa-18 H8 D121, Table 2): 3.1 µg/mL
MIC (Pseudomonas aeruginosa; Pa-19 A20229, Table 2): 1.6 µg/mL
MIC (Pseudomonas aeruginosa; Pa-19 A20229, Table 9): 0.8 µg/mL
MIC (Pseudomonas aeruginosa; Pa-20 A20325, Table 2): 6.3 µg/mL
MIC (Pseudomonas aeruginosa; Pa-20 A20325, Table 9): 3.1 µg/mL
MIC (Pseudomonas aeruginosa; Pa-21 A20601, Table 2): 3.1 µg/mL
MIC (Pseudomonas aeruginosa; Pa-21 A20601, Table 9): 3.1 µg/mL
MIC (Pseudomonas aeruginosa; Pa-23 A20741, Table 2): 6.3 µg/mL
MIC (Pseudomonas aeruginosa; Pa-23 A20741, Table 9): 3.1 µg/mL
MIC (Pseudomonas aeruginosa; Pa-24 A20896, Table 2): 25 µg/mL
MIC (Pseudomonas aeruginosa; Pa-24 A20896, Table 9): 100 µg/mL
MIC (Pseudomonas aeruginosa; Pa-25 A20897, Table 2): 1.6 µg/mL
MIC (Pseudomonas aeruginosa; Pa-25 A20897, Table 9): 1.6 µg/mL
MIC (Pseudomonas aeruginosa; Pa-26 PS32, Table 9): 25 µg/mL
MIC (Pseudomonas aeruginosa; Pa-26 Ps32, Table 2): 1.6 µg/mL
MIC (Pseudomonas aeruginosa; Pa-28 C.P.H. 10527/72, Table 9): 3.1 µg/mL
MIC (Pseudomonas aeruginosa; Pa-28 CPH10527/72, Table 2): 6.3 µg/mL
MIC (Pseudomonas aeruginosa; Pa-29 D122, Table 2): 3.1 µg/mL
MIC (Pseudomonas aeruginosa; Pa-29 D122, Table 9): 3.1 µg/mL
MIC (Pseudomonas aeruginosa; Pa-30 A20600, Table 2): 3.1 µg/mL
MIC (Pseudomonas aeruginosa; Pa-30 A20600, Table 9): 1.6 µg/mL
MIC (Pseudomonas aeruginosa; Pa-31 A20594, Table 2): 0.8 µg/mL
MIC (Pseudomonas aeruginosa; Pa-31 A20594, Table 9): 1.6 µg/mL
MIC (Pseudomonas aeruginosa; Pa-32 A20595, Table 2): 3.1 µg/mL
MIC (Pseudomonas aeruginosa; Pa-32 A20595, Table 9): 3.1 µg/mL
MIC (Pseudomonas aeruginosa; Pa-33 A20598, Table 2): 12.5 µg/mL
MIC (Pseudomonas aeruginosa; Pa-33 A20598, Table 9): 1.6 µg/mL
MIC (Pseudomonas aeruginosa; Pa-34 A20603, Table 2): 3.1 µg/mL
MIC (Pseudomonas aeruginosa; Pa-34 A20603, Table 9): 1.6 µg/mL
MIC (Pseudomonas aeruginosa; Pa-35, Table 2): 12.5 µg/mL
MIC (Pseudomonas aeruginosa; Pa-35, Table 9): 6.3 µg/mL
MIC (Pseudomonas aeruginosa; Pa-36, Table 2): 0.4 µg/mL
MIC (Pseudomonas aeruginosa; Pa-36, Table 9): < 0.2 µg/mL
MIC (Pseudomonas aeruginosa; Pa-37 A20130, Table 2): 3.1 µg/mL
MIC (Pseudomonas aeruginosa; Pa-37 A20130, Table 9): 3.1 µg/mL
MIC (Pseudomonas aeruginosa; Pa-38 A20349, Table 2): 6.3 µg/mL
MIC (Pseudomonas aeruginosa; Pa-38 A20349, Table 9): 12.5 µg/mL
MIC (Pseudomonas aeruginosa; Pa-39 A20641, Table 2): 3.1 µg/mL
MIC (Pseudomonas aeruginosa; Pa-39 A20641, Table 9): 1.6 µg/mL
MIC (Pseudomonas aeruginosa; Pa-41 A21227, Table 2): 3.1 µg/mL
MIC (Pseudomonas aeruginosa; Pa-41 A21227, Table 9): 3.1 µg/mL
MIC (Pseudomonas aeruginosa; Pa-42 A21229, Table 2): 25 µg/mL
MIC (Pseudomonas aeruginosa; Pa-42 A21229, Table 9): 6.3 µg/mL
MIC (Pseudomonas aeruginosa; Pa-43 A21233, Table 2): 3.1 µg/mL
MIC (Pseudomonas aeruginosa; Pa-43 A21233, Table 9): 3.1 µg/mL
MIC (Pseudomonas aeruginosa; Pa-44 A21274, Table 2): 3.1 µg/mL
MIC (Pseudomonas aeruginosa; Pa-44 A21274, Table 9): 6.3 µg/mL
MIC (Pseudomonas aeruginosa; Pa-51 A9910, Table 2): 3.1 µg/mL
MIC (Pseudomonas aeruginosa; Pa-51 A9910, Table 9): 3.1 µg/mL
MIC (Pseudomonas aeruginosa; Pa-52 A9926, Table 2): 3.1 µg/mL
MIC (Pseudomonas aeruginosa; Pa-52 A9926, Table 9): 3.1 µg/mL
MIC (Pseudomonas aeruginosa; Pa-53 A20126, Table 2): 3.1 µg/mL
MIC (Pseudomonas aeruginosa; Pa-53 A20126, Table 9): 3.1 µg/mL
MIC (Pseudomonas aeruginosa; Pa-54 A20128, Table 2): 3.1 µg/mL
MIC (Pseudomonas aeruginosa; Pa-54 A20128, Table 9): 3.1 µg/mL
MIC (Pseudomonas aeruginosa; Pa-55 A20227, Table 2): 3.1 µg/mL
MIC (Pseudomonas aeruginosa; Pa-55 A20227, Table 9): 3.1 µg/mL
MIC (Pseudomonas aeruginosa; Pa-56 A20228, Table 2): 3.1 µg/mL
MIC (Pseudomonas aeruginosa; Pa-56 A20228, Table 9): 3.1 µg/mL
MIC (Pseudomonas aeruginosa; Pa-57 A20546, Table 2): 3.1 µg/mL
MIC (Pseudomonas aeruginosa; Pa-57 A20546, Table 9): 3.1 µg/mL
MIC (Pseudomonas aeruginosa; Pa-58 A20557, Table 2): 6.3 µg/mL
MIC (Pseudomonas aeruginosa; Pa-58 A20557, Table 9): 6.3 µg/mL
MIC (Pseudomonas aeruginosa; Pa-59 A20574, Table 2): 6.3 µg/mL
MIC (Pseudomonas aeruginosa; Pa-59 A20574, Table 9): 1.6 µg/mL
MIC (Pseudomonas aeruginosa; Pa-60 A20602, Table 2): 1.6 µg/mL
MIC (Pseudomonas aeruginosa; Pa-60 A20602, Table 9): 1.6 µg/mL
MIC (Pseudomonas aeruginosa; Pa-61 A20726, Table 2): 6.3 µg/mL
MIC (Pseudomonas aeruginosa; Pa-61 A20726, Table 9): 3.1 µg/mL
MIC (Pseudomonas aeruginosa; Pa-62 A21213, Table 2): 12.5 µg/mL
MIC (Pseudomonas aeruginosa; Pa-62 A21213, Table 9): > 100 µg/mL
MIC (Pseudomonas aeruginosa; Pa-64 A21336, Table 2): 3.1 µg/mL
MIC (Pseudomonas aeruginosa; Pa-64 A21336, Table 9): 1.6 µg/mL
MIC (Pseudomonas aeruginosa; Pa-65 A21428, Table 2): 1.6 µg/mL
MIC (Pseudomonas aeruginosa; Pa-65 A21428, Table 9): 1.6 µg/mL
MIC (Pseudomonas aeruginosa; Pa-66 A21434, Table 2): 3.1 µg/mL
MIC (Pseudomonas aeruginosa; Pa-66 A21434, Table 9): 3.1 µg/mL
MIC (Pseudomonas aeruginosa; Pa-67 A21509, Table 2): 6.3 µg/mL
MIC (Pseudomonas aeruginosa; Pa-67 A21509, Table 9): 6.3 µg/mL
MIC (Pseudomonas aeruginosa; Pa-68 A21510, Table 2): 6.3 µg/mL
MIC (Pseudomonas aeruginosa; Pa-68 A21510, Table 9): 3.1 µg/mL
MIC (Pseudomonas aeruginosa; Pa-69 A21587, Table 2): 12.5 µg/mL
MIC (Pseudomonas aeruginosa; Pa-69 A21587, Table 9): 6.3 µg/mL
MIC (Pseudomonas aeruginosa; Pa-70 K-PS102 (KR-102), Table 9): 3.1 µg/mL
MIC (Pseudomonas aeruginosa; Pa-70 K-Ps102 (CR-102), Table 2): 3.1 µg/mL
MIC (Pseudomonas sp.; Pseudomonas sp. A20358, Table 1, read-out: MIC): 1.6 µg/mL
MIC (Pseudomonas sp.; Pseudomonas sp. A20358, Table 8): 1.6 µg/mL
concentration at 0.25 h [1]: 3570 ng/mL
concentration at 0.5 h [1]: 900 ng/mL
